Test results as given in US20130209543A1, “ENHANCED TREATMENT REGIMENS USING MTOR INHIBITORS” (Intellikine LLC, priority 2011, published 2013).
pIC50: −log10 of the molar value. Like-named read-outs stand apart in the source and are kept apart here.

Columns and labels:
Type in all cases: biochemical
mTOR = target: T1, mTOR (Homo sapiens, UniProt P42345); assay: mTOR kinase inhibition assay
T1 construct: purchased Invitrogen
Experimental: The compounds described herein and any other mTorC1/mTorC2 inhibitors known in the art can be tested against recombinant mTOR (Invitrogen) in an assay containing 50 mM HEPES, pH 7.5, 1 mM EGTA, 10 mM MgCl2, 2.5 mM, 0.01% Tween, 10 μM ATP (2.5 μCi of μ-32P-ATP), and 3 mg/mL BSA. Rat recombinant PHAS-1/4EBP1 (Calbiochem; 2 mg/mL) is used as a substrate. Reactions are terminated by spotting onto nitrocellulose, which is washed with 1M NaCl/1% phosphoric acid (approximately 6 times, 5-10 minutes each). Sheets are dried and the transferred radioactivity quantitated by phosphorimaging.
For instance, one can use Invitrogen's LanthaScreen™ Kinase assay to test the inhibitors of mTOR disclosed herein. This assay is a time resolved FRET platform that measures the phosphorylation of GFP labeled 4EBP1 by mTOR kinase. The kinase reaction is performed in a white 384 well microtitre plate. The total reaction volume is 20 μl per well and the reaction buffer composition is 50 mM HEPES pH7.5, 0.01% Polysorbate 20, 1 mM EGTA, 10 mM MnCl2, and 2 mM DTT. In the first step, each well receives 2 ul of test compound in 20% dimethylsulphoxide resulting in a 2% DMSO final concentration. Next, 8ul of mTOR diluted in reaction buffer is added per well for a 60 ng/ml final concentration. To start the reaction, 10 ul of an ATP/GFP-4EBP1 mixture (diluted in reaction buffer) is added per well for a final concentration of 10 μM ATP and 0.5 μM GFP-4EBP1. The plate is sealed and incubated for 1 hour at room temperature. […] The plate is sealed, incubated for 1 hour at room temperature, and then read on a plate reader set up for LanthaScreen™ TR-FRET. Data is analyzed and IC50s are generated using GraphPad Prism 5.

PI3K α = PI3K α (Homo sapiens, UniProt P42336); assay: PI3K α kinase assay
Sequence of PI3K α (P42336 whole entry, species assumed): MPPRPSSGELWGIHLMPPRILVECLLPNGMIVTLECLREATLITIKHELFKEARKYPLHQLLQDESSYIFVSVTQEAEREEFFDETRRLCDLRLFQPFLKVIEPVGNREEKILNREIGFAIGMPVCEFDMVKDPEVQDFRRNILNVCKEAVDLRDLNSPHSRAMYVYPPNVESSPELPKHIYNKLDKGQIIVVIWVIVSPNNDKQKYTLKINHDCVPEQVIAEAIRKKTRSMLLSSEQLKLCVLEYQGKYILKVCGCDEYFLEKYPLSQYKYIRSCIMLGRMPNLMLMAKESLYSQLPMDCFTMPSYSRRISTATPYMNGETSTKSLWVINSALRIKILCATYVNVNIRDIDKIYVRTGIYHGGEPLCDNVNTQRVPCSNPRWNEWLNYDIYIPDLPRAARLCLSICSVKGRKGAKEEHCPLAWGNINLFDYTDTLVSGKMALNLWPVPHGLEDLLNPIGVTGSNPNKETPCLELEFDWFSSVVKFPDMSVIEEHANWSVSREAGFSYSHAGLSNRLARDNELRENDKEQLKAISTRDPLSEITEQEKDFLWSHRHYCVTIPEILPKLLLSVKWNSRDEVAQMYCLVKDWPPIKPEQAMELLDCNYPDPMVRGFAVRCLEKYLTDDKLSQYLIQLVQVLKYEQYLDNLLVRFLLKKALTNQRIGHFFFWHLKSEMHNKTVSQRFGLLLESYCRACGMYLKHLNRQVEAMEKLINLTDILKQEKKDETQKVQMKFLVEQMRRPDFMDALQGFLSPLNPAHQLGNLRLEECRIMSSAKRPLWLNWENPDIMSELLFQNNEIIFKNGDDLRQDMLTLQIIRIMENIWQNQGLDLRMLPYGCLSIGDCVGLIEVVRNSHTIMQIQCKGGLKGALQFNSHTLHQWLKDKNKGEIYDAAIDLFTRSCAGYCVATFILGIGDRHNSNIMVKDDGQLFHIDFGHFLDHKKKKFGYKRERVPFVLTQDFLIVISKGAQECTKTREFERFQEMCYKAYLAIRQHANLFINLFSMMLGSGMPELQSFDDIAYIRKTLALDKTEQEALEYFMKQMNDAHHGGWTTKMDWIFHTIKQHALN
Sequence of PI3K α (P27986 whole entry partner, species assumed): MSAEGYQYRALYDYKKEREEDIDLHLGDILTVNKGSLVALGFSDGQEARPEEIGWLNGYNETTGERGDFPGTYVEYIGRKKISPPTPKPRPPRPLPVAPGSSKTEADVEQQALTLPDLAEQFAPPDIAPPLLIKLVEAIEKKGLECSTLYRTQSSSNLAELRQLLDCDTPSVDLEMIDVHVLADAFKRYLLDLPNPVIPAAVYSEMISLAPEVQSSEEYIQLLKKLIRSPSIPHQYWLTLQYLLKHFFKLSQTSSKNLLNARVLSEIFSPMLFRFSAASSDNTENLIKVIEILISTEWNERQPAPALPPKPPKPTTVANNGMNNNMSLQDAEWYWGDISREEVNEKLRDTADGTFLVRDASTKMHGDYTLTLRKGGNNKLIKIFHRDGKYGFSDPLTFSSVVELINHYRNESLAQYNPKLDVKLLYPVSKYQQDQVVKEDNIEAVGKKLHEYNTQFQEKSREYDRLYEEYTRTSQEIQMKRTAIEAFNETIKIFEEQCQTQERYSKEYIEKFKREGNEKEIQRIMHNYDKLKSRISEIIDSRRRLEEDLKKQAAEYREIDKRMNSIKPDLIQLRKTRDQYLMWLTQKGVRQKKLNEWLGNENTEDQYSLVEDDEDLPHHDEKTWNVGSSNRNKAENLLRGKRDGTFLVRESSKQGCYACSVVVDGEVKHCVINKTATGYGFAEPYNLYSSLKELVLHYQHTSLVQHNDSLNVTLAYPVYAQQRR

PI3K δ = PI3K δ (Homo sapiens, UniProt O00329); assay: PI3K δ kinase assay
Sequence of PI3K δ (O00329 whole entry, species assumed): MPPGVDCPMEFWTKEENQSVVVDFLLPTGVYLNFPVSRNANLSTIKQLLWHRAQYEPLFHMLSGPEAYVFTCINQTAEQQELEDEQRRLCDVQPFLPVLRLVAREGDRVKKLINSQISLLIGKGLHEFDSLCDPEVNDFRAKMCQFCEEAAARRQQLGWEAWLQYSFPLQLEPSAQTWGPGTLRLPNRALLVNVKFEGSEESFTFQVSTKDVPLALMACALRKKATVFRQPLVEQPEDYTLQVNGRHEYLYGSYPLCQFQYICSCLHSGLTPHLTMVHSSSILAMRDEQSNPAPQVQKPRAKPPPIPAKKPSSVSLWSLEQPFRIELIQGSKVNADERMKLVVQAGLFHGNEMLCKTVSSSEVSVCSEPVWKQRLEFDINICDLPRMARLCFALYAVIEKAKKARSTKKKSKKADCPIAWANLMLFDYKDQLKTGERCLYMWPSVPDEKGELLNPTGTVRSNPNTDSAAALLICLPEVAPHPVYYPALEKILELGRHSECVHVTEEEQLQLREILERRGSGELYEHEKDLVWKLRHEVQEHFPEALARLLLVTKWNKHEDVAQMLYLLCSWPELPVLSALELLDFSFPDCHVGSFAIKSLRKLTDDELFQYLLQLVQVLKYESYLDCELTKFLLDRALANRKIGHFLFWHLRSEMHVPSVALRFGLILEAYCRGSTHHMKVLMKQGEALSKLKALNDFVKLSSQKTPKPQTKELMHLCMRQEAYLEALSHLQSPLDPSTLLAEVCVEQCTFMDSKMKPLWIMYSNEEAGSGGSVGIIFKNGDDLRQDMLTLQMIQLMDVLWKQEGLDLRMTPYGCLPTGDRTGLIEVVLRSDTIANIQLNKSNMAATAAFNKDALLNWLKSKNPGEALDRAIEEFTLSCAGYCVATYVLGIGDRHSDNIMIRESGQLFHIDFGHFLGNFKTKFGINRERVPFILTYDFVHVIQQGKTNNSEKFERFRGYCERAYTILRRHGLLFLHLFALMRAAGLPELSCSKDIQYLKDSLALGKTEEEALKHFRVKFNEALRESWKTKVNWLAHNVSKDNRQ
Sequence of PI3K δ (P27986 whole entry partner, species assumed): as the sequence (P27986 whole entry partner, species assumed) above

PI3K γ = PI3K γ (Homo sapiens, UniProt P48736); assay: PI3K γ kinase assay
Sequence of PI3K γ (P48736 whole entry, species assumed): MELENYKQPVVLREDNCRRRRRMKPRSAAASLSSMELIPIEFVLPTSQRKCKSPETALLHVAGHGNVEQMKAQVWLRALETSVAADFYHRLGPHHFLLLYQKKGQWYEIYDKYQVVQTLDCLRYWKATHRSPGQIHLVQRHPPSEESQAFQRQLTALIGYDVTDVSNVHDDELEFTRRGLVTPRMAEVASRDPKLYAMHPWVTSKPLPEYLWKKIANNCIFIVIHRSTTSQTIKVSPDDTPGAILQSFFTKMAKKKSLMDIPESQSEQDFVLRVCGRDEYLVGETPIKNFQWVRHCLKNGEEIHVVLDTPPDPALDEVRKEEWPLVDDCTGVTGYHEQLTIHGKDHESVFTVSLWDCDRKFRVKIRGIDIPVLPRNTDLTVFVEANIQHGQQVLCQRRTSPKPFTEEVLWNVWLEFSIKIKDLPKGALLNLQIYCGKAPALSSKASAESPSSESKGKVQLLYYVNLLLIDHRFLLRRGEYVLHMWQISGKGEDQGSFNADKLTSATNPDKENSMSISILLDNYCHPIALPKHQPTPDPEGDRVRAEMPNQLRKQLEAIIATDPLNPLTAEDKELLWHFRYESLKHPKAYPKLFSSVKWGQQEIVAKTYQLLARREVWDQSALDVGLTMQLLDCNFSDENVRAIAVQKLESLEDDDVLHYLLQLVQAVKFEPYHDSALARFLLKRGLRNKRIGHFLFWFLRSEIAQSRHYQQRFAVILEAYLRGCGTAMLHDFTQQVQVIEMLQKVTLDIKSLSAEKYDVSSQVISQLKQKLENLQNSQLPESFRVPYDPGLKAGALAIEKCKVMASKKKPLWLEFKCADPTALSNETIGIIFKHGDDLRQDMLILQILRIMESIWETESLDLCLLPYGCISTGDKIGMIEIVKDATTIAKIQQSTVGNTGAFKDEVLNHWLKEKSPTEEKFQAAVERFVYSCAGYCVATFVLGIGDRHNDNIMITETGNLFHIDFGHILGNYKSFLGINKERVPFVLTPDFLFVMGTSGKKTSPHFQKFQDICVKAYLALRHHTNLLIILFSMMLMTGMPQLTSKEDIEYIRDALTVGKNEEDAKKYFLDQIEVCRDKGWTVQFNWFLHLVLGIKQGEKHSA

SMILES | pIC50 (mTOR; Table 2, read-out: mTORC IC50) | pIC50 (PI3K α; Table 2) | also measured
CC(C)n1nc(-c2cc3cc(F)ccc3[nH]2)c2c(NC(=O)N(C)C)ncnc21 [Compound 2] | < 6.30 | – | –
CC(=O)Nc1nc2ccc(-c3nn(C(C)C)c4ncnc(N)c34)cc2o1 [Compound 3] | – | – | pIC50 (PI3K α; Table 1): < 5.00
CC(C)n1nc(-c2cc3cc(F)ccc3[nH]2)c2c(N)ncnc21 [Compound 3] | 6.30 to 7.00 | < 6.30 | –
CC(C)n1nc(-c2cc3cc(C#N)ccc3[nH]2)c2c(N)ncnc21 [Compound 4] | < 6.30 | < 6.30 | –
COc1ccc2[nH]c(-c3nn(C(C)C)c4ncnc(N)c34)cc2c1 [Compound 5] | < 6.30 | < 6.30 | –
CC(C)n1nc(-c2cc3ccccc3n2C)c2c(N)ncnc21 [Compound 6] | < 6.30 | < 6.30 | –
CC(C)n1nc(-c2cc3ccccc3[nH]2)c2c(N)ncnc21 [Compound 7] | 7.00 to 7.30 | < 6.30 | –
COc1ccc2cc(-c3nn(C(C)C)c4ncnc(N)c34)[nH]c2c1 [Compound 8] | < 6.30 | < 6.30 | –
CC(C)n1nc(-c2cc3c(Cl)cccc3[nH]2)c2c(N)ncnc21 [Compound 9] | 7.30 to 7.60 | < 6.30 | –
COc1cccc2cc(-c3nn(C(C)C)c4ncnc(N)c34)[nH]c12 [Compound 10] | 7.60 to 8.00 | – | –
CNc1noc2cc(-c3nn(C(C)C)c4ncnc(N)c34)ccc12 [Compound 13] | – | – | pIC50 (PI3K δ; Table 1): > 6.00; pIC50 (mTOR; Table 1, read-out: mTOR IC50): > 5.00; pIC50 (PI3K γ; Table 1): > 6.00; pIC50 (PI3K α; Table 1): > 5.00
COc1cc(Cl)c2[nH]c(-c3nn(C(C)C)c4ncnc(N)c34)cc2c1 [Compound 13] | < 6.30 | < 6.30 | –
CC(C)n1nc(-c2ccc3c(NC4CC4)noc3c2)c2c(N)ncnc21 [Compound 14] | – | – | pIC50 (PI3K δ; Table 1): > 5.00; pIC50 (mTOR; Table 1, read-out: mTOR IC50): > 5.00; pIC50 (PI3K α; Table 1): > 5.00
COc1cc(F)c2[nH]c(-c3nn(C(C)C)c4ncnc(N)c34)cc2c1 [Compound 14] | < 6.30 | < 6.30 | –
CC(C)n1nc(-c2ccc3onc(NC4CC4)c3c2)c2c(N)ncnc21 [Compound 16] | – | – | pIC50 (PI3K δ; Table 1): < 5.00; pIC50 (mTOR; Table 1, read-out: mTOR IC50): < 5.00; pIC50 (PI3K α; Table 1): < 5.00
CC(C)n1nc(-c2cc3cc(Cl)ccc3[nH]2)c2c(N)ncnc21 [Compound 17] | < 6.30 | < 6.30 | –
Nc1noc2ccc(-c3nn(CC(=O)N4CCOCC4)c4ncnc(N)c34)cc12 [Compound 17] | – | – | pIC50 (PI3K δ; Table 1): < 5.00; pIC50 (mTOR; Table 1, read-out: mTOR IC50): < 5.00; pIC50 (PI3K γ; Table 1): < 5.00; pIC50 (PI3K α; Table 1): < 5.00
COc1ccc2[nH]c(-c3nn(C(C)C)c4ncnc(N)c34)cc2n1 [Compound 18] | < 6.30 | – | –
COc1cnc2[nH]c(-c3nn(C(C)C)c4ncnc(N)c34)cc2c1 [Compound 19] | < 6.30 | < 6.30 | –
CC(C)n1nc(-c2cc3cnccc3[nH]2)c2c(N)ncnc21 [Compound 20] | < 6.30 | < 6.30 | –
CC(C)n1nc(-c2cc3cc(C(N)=O)ccc3[nH]2)c2c(N)ncnc21 [Compound 23] | < 6.30 | < 6.30 | –
Nc1nc2cc(-c3nn(C4CC(O)C4)c4ncnc(N)c34)ccc2o1 (stereo not shown) [Compound 26] | – | – | pIC50 (PI3K γ; Table 1): > 7.00; pIC50 (PI3K α; Table 1): > 7.00
COc1cc2cc(-c3nn(C(C)C)c4ncnc(N)c34)[nH]c2cc1Cl [Compound 29] | < 6.30 | – | –
CC(C)n1nc(-c2cc3cc(O)c(Cl)cc3[nH]2)c2c(N)ncnc21 [Compound 32] | 6.30 to 7.00 | < 6.30 | pIC50 (PI3K δ; Table 2): < 6.30; pIC50 (PI3K γ; Table 2): < 6.30
Nc1ncnc2c1c(-c1cc3cc(O)ccc3[nH]1)nn2CCN1CCOCC1 [Compound 33] | 6.30 to 7.00 | < 6.30 | pIC50 (PI3K δ; Table 2): < 6.30; pIC50 (PI3K γ; Table 2): < 6.30
Nc1ncnc2c1c(-c1cc3cc(O)ccc3[nH]1)nn2CC(=O)N1CCOCC1 [Compound 34] | < 6.30 | < 6.30 | pIC50 (PI3K δ; Table 2): < 6.30; pIC50 (PI3K γ; Table 2): < 6.30
CNC(=O)Cn1nc(-c2cc3cc(O)ccc3[nH]2)c2c(N)ncnc21 [Compound 35] | < 6.30 | < 6.30 | pIC50 (PI3K δ; Table 2): < 6.30; pIC50 (PI3K γ; Table 2): < 6.30
CC(C)n1nc(-c2cc3cc(O)ccc3[nH]2)c2c(N)nccc21 [Compound 45] | < 6.30 | – | –
